In patent publication US8975264B2, “Compound acting as a cannabinoid receptor-1 inhibitor” (Amorepacific Corporation, priority 2010, dated 2015):

Target: human CB1 (cannabinoid receptor 1) (Homo sapiens, UniProt P21554)
Experiment: CB1 receptor inhibition effect: calcium ion influx assay (Fluo-4 NW) in Chem-1 cells after 1 μM R-(+)-WIN55212-2
Format: cell-based
Details: Chem-1 cells stably expressing human CB1; agonist 1 μM R-(+)-WIN55212-2; compared with Examples 5 and 222
Description: When cells in which the cannabinoid receptor 1 (CB1) is stably expressed are treated with a CB1 receptor agonist, the CB1 receptor is activated and influx of calcium ions into the cells increases. CB1 receptor inhibition effect of a test compound can be evaluated by measuring the degree of calcium influx inhibition after treating with the test compound.
First, Chem-1 cells (Chemicon International, #HTS019C) in which human CB1 cDNA is expressed stably were seeded onto a 96-well cell culture plate at a density of ˜50,000 cells/well and incubated overnight in a 5% CO2 incubator at 37° C. The next day, the culture medium was discarded and the cells were cautiously washed once using an assay buffer (HBSS containing 20 mM HEPES and 2.5 mM probenecid) with 200 μL/well. Calcium ion influx was measured using an assay kit (Fluo-4 NW calcium assay kit: Molecular Probes™, #F36206) according to the manufacturer's instructions. The compounds of Examples of desired concentration to be measured were comprised to 0.5% DMSO. For control, only 0.5% DMSO was used without the compounds of Examples. Reaction time was 10 minutes. After treating the Chem-1 cells stably expressing the CB1 receptor with 1 μM R-(+)-WIN55212-2 (Sigma, #W102), a CB1 receptor agonist, calcium ion (Ca^2+) flux induced thereby was measured for 80 seconds using Flex Station 3 (Molecular Device, USA).
The difference in calcium ion concentration of the cells treated with the compounds of Examples or those treated with 1 μM R-(+)-WIN55212-2 was obtained from the difference of the maximum and minimum values during the 80 seconds. Then, % inhibition of the compounds for the CB1 receptor was calculated using the following equation. % inhibition={1−(ΔRFUcompound−ΔRFUBlank)/(ΔRFUControl−ΔRFUBlank)}×100 [Equation]
ΔRFU: maximum relative fluorescence units−minimum relative fluorescence units
ΔRFUCompound: difference in maximum and minimum RFUs in the well where the compounds of Examples dissolved in DMSO to a final concentration of 0.5% and 1 μM R-(+)-WIN55212-2 dissolved in DMSO to a final concentration of 0.5% were added
ΔRFUBlank: difference in maximum and minimum RFUs in the well to which only 1% DMSO was added
ΔRFUControl: difference in maximum and minimum RFUs in the well where 0.5% DMSO and 1 μM R-(+)-WIN55212-2 dissolved in DMSO to a final concentration of 0.5% were added

human CB1 (cannabinoid receptor 1), sequence (P21554 whole entry): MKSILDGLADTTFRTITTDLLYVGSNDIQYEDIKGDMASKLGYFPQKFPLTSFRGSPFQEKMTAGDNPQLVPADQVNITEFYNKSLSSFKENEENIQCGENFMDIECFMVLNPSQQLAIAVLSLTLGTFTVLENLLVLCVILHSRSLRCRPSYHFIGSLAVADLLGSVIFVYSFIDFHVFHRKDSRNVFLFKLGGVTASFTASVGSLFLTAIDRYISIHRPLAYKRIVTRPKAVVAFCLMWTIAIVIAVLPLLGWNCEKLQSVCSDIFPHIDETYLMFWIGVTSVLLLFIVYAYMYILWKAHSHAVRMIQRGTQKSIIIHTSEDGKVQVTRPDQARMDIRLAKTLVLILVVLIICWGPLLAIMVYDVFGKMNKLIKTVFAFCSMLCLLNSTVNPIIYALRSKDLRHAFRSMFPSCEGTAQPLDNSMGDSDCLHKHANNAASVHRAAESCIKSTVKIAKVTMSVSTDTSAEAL

Structure (SMILES) | CB1 receptor inhibition effect, (R)-isomers compared with (S)-isomers
COCc1nn2c(-c3ccc(F)cc3)cc(N3CCC[C@@H]3CO)nc2c1-c1ccc(OC)cc1 [Example 306] | lower CB1 receptor inhibition effect than the compounds of Examples 5 and 222

Same assay, conditions: calcium ion influx in Chem-1 cells expressing human CB1, 1 μM R-(+)-WIN55212-2

IC50 [µM] | Structure (SMILES)
0.41 | Cc1ccc(-c2cc(N3CCC[C@H]3CO)nc3c(-c4ccc(C(F)(F)F)cc4)c(C)nn23)cc1 [Example 180]
0.007 | CCOCc1nn2c(-c3cccc(C(F)(F)F)c3)cc(N(C)CCO)nc2c1-c1ccc(Cl)cc1 [Example 244]
0.2 | CCCOc1ccc(-c2c(C)nn3c(-c4ccc(C)cc4)cc(N4CCC[C@H]4CO)nc23)cc1 [Example 194]
0.05 | COCc1nn2c(-c3cccc(OC)c3)cc(N3CCC[C@H]3CO)nc2c1-c1ccc(OC)cc1 [Example 226]
0.007 | COCc1nn2c(-c3ccc(F)cc3)cc(N3CCC[C@H]3CO)nc2c1-c1ccc(Cl)cc1 [Example 231]
0.18 | COc1cccc(-c2cc(N3CCC[C@H]3CO)nc3c(-c4ccc(F)cc4F)c(C)nn23)c1 [Example 190]
0.2 | Cc1cccc(-c2cc(N3CCC[C@H]3CO)nc3c(-c4ccc5c(c4)OCO5)c(C)nn23)c1 [Example 159]
0.018 | COCc1nn2c(-c3cccc(C)c3)cc(N(C)CCO)nc2c1-c1ccc(Cl)cc1 [Example 262]
0.007 | CCOCc1nn2c(-c3cccc(F)c3)cc(N(C)CCO)nc2c1-c1ccc(Cl)cc1 [Example 243]
0.19 | CCOCc1nn2c(-c3cccc(C(F)(F)F)c3)cc(N(C)CCO)nc2c1-c1ccc2c(c1)OCO2 [Example 253]
0.15 | OC[C@@H]1CCCN1c1cc(-c2cccc(F)c2)n2nc(C3CC3)c(-c3ccc(Cl)cc3)c2n1 [Example 197]

Further lines, the molecule ahead of its results:

Structure (SMILES) | IC50 [µM]
Cc1ccc(-c2c(C)nn3c(-c4cccc(C(F)(F)F)c4)cc(N4CCC[C@H]4CO)nc23)cc1F [Example 137] | 0.09
CCc1cccc(-c2cc(N3CCC[C@H]3CO)nc3c(-c4ccc(Cl)cc4)c(C)nn23)c1 [Example 14] | 0.09
CCOc1ccc(-c2c(C)nn3c(-c4cccc(C)c4)cc(N4CCC[C@H]4CO)nc23)cc1 [Example 158] | 0.21
Cc1nn2c(-c3ccc(F)cc3)cc(N3CCC[C@H]3CO)nc2c1-c1ccc2c(c1)OCO2 [Example 66] | 0.14
Cc1nn2c(-c3cccc(C(F)(F)F)c3)cc(N3CCC[C@H]3CO)nc2c1-c1ccc2c(c1)OCO2 [Example 125] | 0.09
CCOc1ccc(-c2c(C)nn3c(-c4cccc(F)c4)cc(N4CCC[C@H]4CO)nc23)cc1 [Example 112] | 0.13
Cc1nn2c(-c3ccc(F)cc3)cc(N3CCC[C@H]3CO)nc2c1-c1ccc(OC(F)(F)F)cc1 [Example 84] | 0.53
Cc1nn2c(-c3ccc(F)cc3)cc(N3CCC[C@H]3CO)nc2c1-c1ccc(C#N)cc1 [Example 106] | 0.25
CCOc1ccc(-c2c(C)nn3c(-c4cc(F)cc(F)c4)cc(N4CCC[C@H]4CO)nc23)cc1 [Example 55] | 0.2
Cc1ccc(-c2c(C)nn3c(-c4ccc(F)c(F)c4)cc(N4CCC[C@H]4CO)nc23)cc1 [Example 26, (S)-(1-(3-(4-methylphenyl)-7-(3,4-difluorophenyl)-2-methylpyrazolo[1,5-a]pyrimidin-5-yl)pyrrolidin-2-yl)methanol] | 0.053
Cc1nn2c(-c3ccccc3F)cc(N3CCC[C@H]3CO)nc2c1-c1ccc2c(c1)OCO2 [Example 57] | 0.24
C=Cc1ccc(-c2c(C)nn3c(-c4cccc(F)c4)cc(N4CCC[C@H]4CO)nc23)cc1 [Example 117] | 0.24
Cc1ccc(-c2c(C)nn3c(-c4ccc(F)cc4)cc(N4CCC[C@H]4CO)nc23)cc1F [Example 79] | 0.1
Cc1nn2c(-c3cccc(F)c3)cc(N3CCC[C@H]3CO)nc2c1-c1ccc2c(c1)OCO2 [Example 113] | 0.049
COc1ccc(-c2c(C)nn3c(-c4cccc(C(F)(F)F)c4)cc(N4CCC[C@H]4CO)nc23)cc1 [Example 123] | 0.076

Same assay, conditions: compound at 1 μM; calcium ion influx in Chem-1 cells expressing human CB1, 1 μM R-(+)-WIN55212-2

inhibition at 1 µM [%] | Structure (SMILES)
< 5 | COCc1nn2c(-c3ccc(F)cc3)cc(N3CCC[C@@H]3CO)nc2c1-c1ccc(OC)cc1 [Example 306]

Same assay, conditions: compound at 3 μM; calcium ion influx in Chem-1 cells expressing human CB1, 1 μM R-(+)-WIN55212-2

inhibition at 3 µM [%] | Structure (SMILES)
~5 | Cc1nn2c(-c3ccccc3)cc(N3CCC[C@@H]3CO)nc2c1-c1ccc(Cl)cc1 [Example 305]
